Results on twelve compounds are retold here after US20250129074A1, “CHIMERIC COMPOUND FOR TARGETED DEGRADATION OF ANDROGEN RECEPTOR PROTEIN, PREPARATION METHOD THEREFOR, AND MEDICAL USE THEREOF” (Jiangsu Hengrui Pharmaceuticals Co., Ltd., priority 2021, published 2025).

One test relates to LNCaP cells. Nature of the test: Inhibition of LNCaP proliferation (CellTiter-Glo). The test is classed as cell-based. As to conditions: Homo sapiens, 144 h, 0.1 nM R1881, six days; for Emax: read-out: Max (maximum proliferation inhibition rate). The protocol: The plate was incubated in a 37° C., 5% CO2 cell incubator for three days. […] A blank control cell well containing 0.5% DMSO and a cell-free vehicle control well were set up. The plate was incubated in a 37° C., 5% CO2 cell incubator for six days.
A general note: In ATP-based viability assays light output follows the ATP content of the culture.

The target in the next test is T1, androgen receptor (AR) (Homo sapiens, UniProt P10275, T878A).
T1 construct: host or cells: LNCaP human prostate cancer cells
T1 sequence (P10275 1-920 T878A): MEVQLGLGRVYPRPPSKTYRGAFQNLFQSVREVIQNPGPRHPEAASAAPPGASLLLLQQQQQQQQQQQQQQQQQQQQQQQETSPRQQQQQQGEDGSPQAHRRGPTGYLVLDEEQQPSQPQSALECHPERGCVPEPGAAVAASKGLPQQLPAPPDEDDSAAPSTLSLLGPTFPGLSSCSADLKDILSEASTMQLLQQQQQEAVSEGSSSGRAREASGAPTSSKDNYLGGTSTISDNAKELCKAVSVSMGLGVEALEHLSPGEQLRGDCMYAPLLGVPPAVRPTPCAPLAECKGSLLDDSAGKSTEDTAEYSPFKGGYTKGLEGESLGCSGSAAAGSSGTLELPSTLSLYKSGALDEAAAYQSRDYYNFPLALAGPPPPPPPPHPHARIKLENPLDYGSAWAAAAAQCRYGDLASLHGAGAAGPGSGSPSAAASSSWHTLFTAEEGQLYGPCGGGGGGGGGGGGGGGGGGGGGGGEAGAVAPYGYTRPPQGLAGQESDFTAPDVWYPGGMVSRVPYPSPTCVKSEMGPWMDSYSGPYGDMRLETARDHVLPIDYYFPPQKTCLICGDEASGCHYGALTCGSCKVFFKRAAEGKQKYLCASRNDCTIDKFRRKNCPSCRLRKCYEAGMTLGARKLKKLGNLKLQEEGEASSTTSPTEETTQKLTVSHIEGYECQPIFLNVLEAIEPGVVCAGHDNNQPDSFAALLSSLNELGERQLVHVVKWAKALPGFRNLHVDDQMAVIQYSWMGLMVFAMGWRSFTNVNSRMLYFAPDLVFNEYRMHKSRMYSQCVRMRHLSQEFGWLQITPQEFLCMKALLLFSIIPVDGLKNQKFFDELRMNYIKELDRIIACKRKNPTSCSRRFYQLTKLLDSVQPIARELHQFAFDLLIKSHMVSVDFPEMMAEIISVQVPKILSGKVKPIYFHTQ
Nature of the test: Degradation activity on androgen receptor in LNCaP cells (AR ELISA). The test is classed as cell-based. The conditions noted are these: for Dmax: read-out: Max (maximum AR degradation rate). The protocol:
The plate was incubated in a 37° C., 5% CO2 cell incubator for three days. […] A blank control cell well containing 0.5% DMSO was set up. The plate was incubated in a 37° C., 5% CO2 cell incubator for 24 hours. […] The lysate was well mixed by pipetting up and down and then centrifuged at 4000 rpm at 4° C. for 10 minutes. […] The plate was sealed and incubated in a 37° C. incubator for 1 hour. […] The plate was sealed and then incubated in a 37° C. incubator for 30 minutes.
On the technique in general: An ELISA detects its analyte on a solid surface through an enzyme-linked reagent.

Where [1] appears, read: 0.1 nM R1881, 24 hours, read-out: LNCaP DC50.
Where [2] appears, read: read-out: LNCaP DC50, 0.1 nM R1881, 24 hours.

Read-outs that look alike come from different tables or passages of the source.

Broadly, the IC50 is the concentration that gives 50% inhibition. Lower therefore signals greater potency. By DC50 is commonly meant the concentration at which degradation of the target reaches its halfway point.

`C[C@H]1CC2(CCN(c3ccc(C(=O)N4CCC5(CC4)CC(N4CCN(c6ccc(N7CCC(=O)NC7=O)cc6)CC4)C5)cc3F)CC2)CN1c1ccc(C#N)c(Cl)c1` [Example 30, (S)-2-Chloro-4-(8-(4-(2-(4-(4-(2,4-dioxotetrahydropyrimidin-1(2H)-yl)phenyl)piperazin-1-yl)-7-azaspiro[3.5]nonane-7-carbonyl)-2-fluorophenyl)-3-methyl-2,8-diazaspiro[4.5]decan-2-yl)benzonitrile]: in the test on LNCaP cells, the IC50 turned out to be 7.2 nM and the Emax worked out at 52%. Further, the 50% degradation concentration (DC50) on androgen receptor (AR) (setting [1]) was 4.2 nM. For the same compound, the Dmax at androgen receptor (AR) (0.1 nM R1881, 24 hours) came to 96%.

Consider `C[C@H]1CC2(CCN(c3ccc(C(=O)N4CCC(CN5CCN(c6cccc(NC7CCC(=O)NC7=O)c6)CC5)CC4)c(F)c3)CC2)CN1c1ccc(C#N)c(Cl)c1` (stereo partly drawn) [Example 16, 2-Chloro-4-((3S)-8-(4-(4-((4-(3-((2,6-dioxopiperidin-3-yl)amino)phenyl)piperazin-1-yl)methyl)piperidine-1-carbonyl)-3-fluorophenyl)-3-methyl-2,8-diazaspiro[4.5]decan-2-yl)benzonitrile], for which, in the test on LNCaP cells, the concentration for half-maximal inhibition (IC50) was found to be 84 nM and the Emax worked out at 70%. In addition, the Dmax on androgen receptor (AR) (0.1 nM R1881, 24 hours) amounted to 97%. The half-maximal degradation concentration (DC50) on androgen receptor (AR) (setting [2]) amounted to 3.9 nM.

With `C[C@H]1CC2(CCN(c3ccc(C(=O)N4CCC(CN5CCC(c6cccc(NC7CCC(=O)NC7=O)c6)CC5)CC4)cc3)CC2)CN1c1ccc(C#N)c(Cl)c1` (stereo partly drawn) [Example 19, 2-Chloro-4-((3S)-8-(4-(4-((4-(3-((2,6-dioxopiperidin-3-yl)amino)phenyl)piperidin-1-yl)methyl)piperidine-1-carbonyl)phenyl)-3-methyl-2,8-diazaspiro[4.5]decan-2-yl)benzonitrile], in the test with LNCaP cells, inhibition was half-maximal at 60 nM (IC50) and the Emax was 68%. The half-maximal degradation concentration (DC50) at androgen receptor (AR) (setting [1]) was found to be 1.8 nM. Moreover, on androgen receptor (AR) (0.1 nM R1881, 24 hours), the Dmax is 96%.

For `C[C@H]1CC2(CCN(c3ccc(C(=O)N4CCC(CN5CCN(c6cccc(NC7CCC(=O)NC7=O)c6)CC5)CC4)nn3)CC2)CN1c1ccc(C#N)c(Cl)c1` (stereo partly drawn) [Example 13, 2-Chloro-4-((3S)-8-(6-(4-((4-(3-((2,6-dioxopiperidin-3-yl)amino)phenyl)piperazin-1-yl)methyl)piperidine-1-carbonyl)pyridazin-3-yl)-3-methyl-2,8-diazaspiro[4.5]decan-2-yl)benzonitrile], in the test on LNCaP cells, the IC50 was 106 nM and the Emax turned out to be 56%. The DC50 on androgen receptor (AR) (setting [1]) came out at 0.5 nM. In addition, the Dmax at androgen receptor (AR) (0.1 nM R1881, 24 hours) amounted to 96%.

Consider `C[C@H]1CC2(CCN(c3ccc(C(=O)N4CCC5(CC4)CC(N4CCN(c6cccc(N7CCC(=O)NC7=O)c6)CC4)C5)cc3)CC2)CN1c1ccc(C#N)c(Cl)c1` [Example 35, (S)-2-Chloro-4-(8-(4-(2-(4-(3-(2,4-dioxotetrahydropyrimidin-1(2H)-yl)phenyl)piperazin-1-yl)-7-azaspiro[3.5]nonane-7-carbonyl)phenyl)-3-methyl-2,8-diazaspiro[4.5]decan-2-yl)benzonitrile], for which, in the test with LNCaP cells, 31 nM corresponded to half-maximal inhibition (IC50) and the Emax is 57%. For the same compound, the DC50 at androgen receptor (AR) (setting [1]) came out at 5.2 nM. The Dmax at androgen receptor (AR) (0.1 nM R1881, 24 hours) was 88%.

In the case of `C[C@H]1CC2(CCN(c3ccc(C(=O)N4CCC5(CC4)CC(N4CCN(c6ccc(N7CCC(=O)NC7=O)cc6)CC4)C5)cn3)CC2)CN1c1ccc(C#N)c(Cl)c1` [Example 33, (S)-2-Chloro-4-(8-(5-(2-(4-(4-(2,4-dioxotetrahydropyrimidin-1(2H)-yl)phenyl)piperazin-1-yl)-7-azaspiro[3.5]nonane-7-carbonyl)pyridin-2-yl)-3-methyl-2,8-diazaspiro[4.5]decan-2-yl]benzonitrile], in the test on LNCaP cells, inhibition was half-maximal at 3.5 nM (IC50) and the Emax was found to be 58%. Also, the half-maximal degradation concentration (DC50) on androgen receptor (AR) (setting [1]) turned out to be 2.5 nM. Moreover, the Dmax at androgen receptor (AR) (0.1 nM R1881, 24 hours) was 95%.

With `C[C@H]1CC2(CCN(c3ccc(C(=O)N4CCC(CN5CCN(c6cccc(NC7CCC(=O)NC7=O)c6)CC5)CC4)cc3)CC2)CN1c1ccc(C#N)c(C(F)(F)F)c1` (stereo partly drawn) [Example 41, 4-((3S)-8-(4-(4-((4-(3-((2,6-Dioxopiperidin-3-yl)amino)phenyl)piperazin-1-yl)methyl)piperidine-1-carbonyl)phenyl)-3-methyl-2,8-diazaspiro[4.5]decan-2-yl)-2-(trifluoromethyl)benzonitrile], in the test on LNCaP cells, the IC50 stood at 98 nM and the Emax amounted to 56%. At androgen receptor (AR) (setting [1]), the DC50 turned out to be 17.1 nM. In addition, the Dmax on androgen receptor (AR) (0.1 nM R1881, 24 hours) is 96%.

Regarding `C[C@H]1CC2(CCN(c3ccc(C(=O)N4CCC(N5CCN(c6cccc(NC7CCC(=O)NC7=O)c6)CC5)CC4)cc3)CC2)CN1c1ccc(C#N)c(Cl)c1` (stereo partly drawn) [Example 10, 2-Chloro-4-((3S)-8-(4-(4-(4-(3-((2,6-dioxopiperidin-3-yl)amino)phenyl)piperazin-1-yl)piperidine-1-carbonyl)phenyl)-3-methyl-2,8-diazaspiro[4.5]decan-2-yl)benzonitrile], in the test with LNCaP cells, the IC50 stood at 93 nM and the Emax amounted to 70%. Also, at androgen receptor (AR) (setting [1]), the 50% degradation concentration (DC50) is 2.5 nM. Also, the Dmax at androgen receptor (AR) (0.1 nM R1881, 24 hours) worked out at 97%.

As for `C[C@H]1CC2(CCN(c3ccc(C(=O)N4CC(CN5CCN(c6cccc(NC7CCC(=O)NC7=O)c6)CC5)C4)cc3)CC2)CN1c1ccc(C#N)c(Cl)c1` (stereo partly drawn) [Example 14, 2-Chloro-4-((3S)-8-(4-(3-((4-(3-((2,6-dioxopiperidin-3-yl)amino)phenyl)piperazin-1-yl)methyl)azetidine-1-carbonyl)phenyl)-3-methyl-2,8-diazaspiro[4.5]decan-2-yl)benzonitrile], in the test with LNCaP cells, the concentration for half-maximal inhibition (IC50) was found to be 57 nM and the Emax stood at 69%. Moreover, at androgen receptor (AR) (setting [1]), the half-maximal degradation concentration (DC50) is 1.9 nM. Further, the Dmax on androgen receptor (AR) (0.1 nM R1881, 24 hours) was 96%.

As for `C[C@H]1CC2(CCN(c3ccc(C(=O)N4CCC(CN5CCC(c6ccc(NC7CCC(=O)NC7=O)cc6)CC5)CC4)cc3)CC2)CN1c1ccc(C#N)c(Cl)c1` (stereo partly drawn) [Example 26, 2-Chloro-4-((3S)-8-(4-(4-((4-(4-((2,6-dioxopiperidin-3-yl)amino)phenyl)piperidin-1-yl)methyl)piperidine-1-carbonyl)phenyl)-3-methyl-2,8-diazaspiro[4.5]decan-2-yl)benzonitrile], in the test with LNCaP cells, the 50% inhibitory concentration (IC50) is 7.8 nM and the Emax was found to be 63%. At androgen receptor (AR) (setting [1]), the 50% degradation concentration (DC50) was 2.5 nM. In addition, on androgen receptor (AR) (0.1 nM R1881, 24 hours), the Dmax is 94%.

In the case of `C[C@H]1CC2(CCN(c3ccc(C(=O)N4CCC(N5CCN(c6ccc(C(=O)NC7CCC(=O)NC7=O)c(F)c6)CC5)CC4)cc3)CC2)CN1c1ccc(C#N)c(Cl)c1` (stereo partly drawn) [Example 1, 4-(4-(1-(4-((S)-2-(3-Chloro-4-cyanophenyl)-3-methyl-2,8-diazaspiro[4.5]decan-8-yl)benzoyl)piperidin-4-yl)piperazin-1-yl)-N-(2,6-dioxopiperidin-3-yl)-2-fluorobenzamide], in the test with LNCaP cells, the IC50 is 183 nM and the Emax is 63%. Moreover, the Dmax on androgen receptor (AR) (0.1 nM R1881, 24 hours) is 89%. In addition, the half-maximal degradation concentration (DC50) at androgen receptor (AR) (setting [2]) amounted to 10.6 nM.

As to `C[C@H]1CC2(CCN(c3ccc(C(=O)N4CCC(CN5CCC(c6ccc(NC7CCC(=O)NC7=O)cc6F)CC5)CC4)cc3)CC2)CN1c1ccc(C#N)c(Cl)c1` (stereo partly drawn) [Example 27, 2-Chloro-4-((3S)-8-(4-(4-((4-(4-((2,6-dioxopiperidin-3-yl)amino)-2-fluorophenyl)piperidin-1-yl)methyl)piperidine-1-carbonyl)phenyl)-3-methyl-2,8-diazaspiro[4.5]decan-2-yl)benzonitrile], in the test on LNCaP cells, the IC50 came to 7.9 nM and the Emax was 64%. Also, at androgen receptor (AR) (setting [1]), the DC50 came to 7.7 nM. In addition, the Dmax at androgen receptor (AR) (0.1 nM R1881, 24 hours) turned out to be 96%.
